US20240317780A1, “RADIOPHARMACEUTICAL SOMATOSTATIN RECEPTOR LIGANDS AND PRECURSORS THEREOF” (Technische Universität München, priority 2021, published 2024)
Like-named read-outs stand apart in the source and are kept apart here.

Tests used:
SST2 = target: T1, SST2 (Homo sapiens, UniProt P30874); assay: Determination of IC50: competitive binding against [125I]TOC on SST2-transfected CHO cells; conditions: [125I]TOC reference radioligand, 60 min room temperature
T1 construct: expressed in transfected cells; host or cells: CHO (Chinese hamster ovary) cells
Description: The SST2-transfected CHO cells were cultivated in Dulbecco's Modified Eagle Medium/Nutrient Mixture F-12 (DMEM/F-12) with Glutamax-I (1:1) (Gibco), supplemented with 10% fetal calf serum (FCS) and maintained at 37° C. in a humidified 5% CO2 atmosphere. […] After removal of the culture medium, the cells were treated once with 300 μL of HBSS-B (Hank's balanced salt solution, Biochrom, Berlin, Germany, with addition of 1% bovine serum albumin (BSA)) and left with 200 μL HBSS-B. Next, 25 μL per well of solutions, containing either HBSS-B (control) or the respective ligand in increasing concentration (10^−10-10^−4 M in HBSS-B, were added with subsequent addition of 25 μL of
[^125I]TOC ([^125I]Tyr^3-Octreotide) (1.0 nM) in HBSS-B. Each concentration is investigated in triplicate. After 60 min incubation at room temperature, the experiment was terminated by removal of the assay medium and consecutive rinsing with 300 μL of cold PBS. The media of both steps were combined in one fraction and represent the amount of unbound radioligand.
Afterwards, the cells were lysed with 300 μL of 1 M NaOH and united with the 300 μL 1 M NaOH of the following wash step. Quantification of bound and unbound radioligand was accomplished in a γ-counter.

[1] = Biodistribution of 18F-labeled SST2 ligands in AR42J tumor-bearing mice; assay type: in vivo; conditions: female, CD1 nu/nu, mouse, iv, total radioactivity, 1 h post injection, tail vein
Description: All animal experiments were conducted in accordance with general animal welfare regulations in Germany and the institutional guidelines for the care and use of animals. To establish tumor xenografts, AR42J cells (5×10^6 cells/100 μL) were suspended in Dulbecco modified Eagle medium/Nutrition Mixture F-12 with Glutamax-1 (1:1) and inoculated subcutaneously onto the right shoulder of 8 weeks old, female CD1 nu/nu mice (Charles River, Sulzfeld, Germany). Mice were used for experiments when tumors had grown to a diameter of 5-9 mm (7-15 days after inoculation).
Approximately 0.5-2.0 MBq (0.05-0.25 nmol) of the ^18F-labeled SST2-ligands were injected into the tail vein of AR42J tumor-bearing female CD1 nu/nu mice and sacrificed after 1 h post injection (n=3-5). Selected organs were removed, weighted and measured in a γ-counter.
The Tables 4, 5, and 6 summarize the results of the in vivo mouse experiments. For all biodistribution studies, female CD1 nu/nu mice with AR42J tumor xenografts, were used and sacrificed 1 h post injection.

T1 sequence (P30874 whole entry, species assumed): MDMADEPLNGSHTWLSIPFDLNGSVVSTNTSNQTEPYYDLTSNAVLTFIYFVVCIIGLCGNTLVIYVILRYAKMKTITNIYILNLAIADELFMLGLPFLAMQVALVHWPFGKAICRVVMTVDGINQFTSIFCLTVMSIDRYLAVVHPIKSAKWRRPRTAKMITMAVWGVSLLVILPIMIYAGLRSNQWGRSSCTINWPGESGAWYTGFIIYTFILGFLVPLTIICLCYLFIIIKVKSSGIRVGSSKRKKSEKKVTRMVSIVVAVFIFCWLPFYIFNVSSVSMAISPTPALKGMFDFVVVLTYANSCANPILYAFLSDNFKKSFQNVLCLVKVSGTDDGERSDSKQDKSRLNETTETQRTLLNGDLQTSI

C[C@@H](O)[C@H](NC(=O)C1CSSCC(NC(=O)C(Cc2ccccc2)NC(=O)CNC(=O)CNC(=O)CNC(=O)C(CC(=O)O)NC(=O)[C@@H](CC(=O)O)NC(=O)C(CNC(=O)CN2CCN(CC(=O)O)CCN(CC(=O)O)CCN(CC(=O)O)CC2)NC(=O)C[N+](C)(C)Cc2ccc([Si](F)(C(C)(C)C)C(C)(C)C)cc2)C(=O)N[C@@H](Cc2ccc(O)cc2)C(=O)NC(Cc2c[nH]c3ccccc23)C(=O)N[C@@H](CCCCN)C(=O)N[C@@H]([C@@H](C)O)C(=O)N1)C(=O)O (stereo partly drawn) (natGa complex, metal not drawn) [[Ga]50]
IC50 (SST2): 3.01 ± 0.03 nM
tissue uptake at 1 h ([1]; AR42J tumor, AR42J tumor, read-out: Tumor % ID/g ± SD): 31.8 ± 2.49 %ID/g
tissue uptake at 1 h ([1]; adrenal glands, read-out: Adrenal glands % ID/g ± SD): 2.39 ± 0.53 %ID/g
tissue uptake at 1 h ([1]; blood, read-out: Blood % ID/g ± SD): 0.5 ± 0.21 %ID/g
tissue uptake at 1 h ([1]; bone, read-out: Bone % ID/g ± SD): 1.23 ± 0.41 %ID/g
tissue uptake at 1 h ([1]; heart, read-out: Heart % ID/g ± SD): 0.27 ± 0.03 %ID/g
tissue uptake at 1 h ([1]; intestine, read-out: Intestine % ID/g ± SD): 1.84 ± 0.45 %ID/g
tissue uptake at 1 h ([1]; kidneys, read-out: Kidneys % ID/g ± SD): 12.3 ± 3.4 %ID/g
tissue uptake at 1 h ([1]; liver, read-out: Liver % ID/g ± SD): 1.22 ± 0.18 %ID/g
tissue uptake at 1 h ([1]; lung, read-out: Lung % ID/g ± SD): 3.73 ± 0.57 %ID/g
tissue uptake at 1 h ([1]; muscle, read-out: Muscle % ID/g ± SD): 0.1 ± 0.03 %ID/g
tissue uptake at 1 h ([1]; pancreas, read-out: Pancreas % ID/g ± SD): 17.3 ± 2.87 %ID/g
tissue uptake at 1 h ([1]; spleen, read-out: Spleen % ID/g ± SD): 0.55 ± 0.06 %ID/g
tissue uptake at 1 h ([1]; stomach, read-out: Stomach % ID/g ± SD): 9.54 ± 1.83 %ID/g

C[C@@H](O)[C@H](NC(=O)C1CSSCC(NC(=O)C(Cc2ccccc2)NC(=O)[C@@H](CC(N)=O)NC(=O)C(CC(N)=O)NC(=O)CNC(=O)C(CC(=O)O)NC(=O)[C@@H](CC(=O)O)NC(=O)C(CNC(=O)CN2CCN(CC(=O)O)CCN(CC(=O)O)CCN(CC(=O)O)CC2)NC(=O)C[N+](C)(C)Cc2ccc([Si](F)(C(C)(C)C)C(C)(C)C)cc2)C(=O)N[C@@H](Cc2ccc(O)cc2)C(=O)NC(Cc2c[nH]c3ccccc23)C(=O)N[C@@H](CCCCN)C(=O)N[C@@H]([C@@H](C)O)C(=O)N1)C(=O)O (stereo partly drawn) (natLu complex, metal not drawn) [[Lu]49]
IC50 (SST2): 4.47 ± 0.95 nM

C[C@@H](O)[C@H](NC(=O)C1CSSCC(NC(=O)C(Cc2ccccc2)NC(=O)CNC(=O)CNC(=O)CNC(=O)C(CC(=O)O)NC(=O)[C@@H](CC(=O)O)NC(=O)C(CNC(=O)C[N+](C)(C)Cc2ccc([Si](F)(C(C)(C)C)C(C)(C)C)cc2)NC(=O)CN2CCN(CC(=O)O)CCN(CC(=O)O)CCN(CC(=O)O)CC2)C(=O)N[C@@H](Cc2ccc(O)cc2)C(=O)NC(Cc2c[nH]c3ccccc23)C(=O)N[C@@H](CCCCN)C(=O)N[C@@H]([C@@H](C)O)C(=O)N1)C(=O)O (stereo partly drawn) (natGa complex, metal not drawn) [[Ga]44]
IC50 (SST2): 5.45 ± 0.5 nM

C[C@@H](O)[C@H](NC(=O)C1CSSCC(NC(=O)C(Cc2ccccc2)NC(=O)CNC(=O)CNC(=O)CNC(=O)C(CC(=O)O)NC(=O)[C@@H](CC(=O)O)NC(=O)C(CCCCN)NC(=O)[C@@H](CNC(=O)C[N+](C)(C)Cc2ccc([Si](F)(C(C)(C)C)C(C)(C)C)cc2)NC(=O)CN2CCN(CC(=O)O)CCN(CC(=O)O)CCN(CC(=O)O)CC2)C(=O)N[C@@H](Cc2ccc(O)cc2)C(=O)NC(Cc2c[nH]c3ccccc23)C(=O)N[C@@H](CCCCN)C(=O)N[C@@H]([C@@H](C)O)C(=O)N1)C(=O)O (stereo partly drawn) (natLu complex, metal not drawn) [[Lu]45]
IC50 (SST2): 3.37 ± 0.35 nM

C[C@@H](O)[C@H](NC(=O)C1CSSCC(NC(=O)C(Cc2ccccc2)NC(=O)CNC(=O)CNC(=O)CNC(=O)C(CC(=O)O)NC(=O)[C@@H](CC(=O)O)NC(=O)C(CNC(=O)CN2CCN(CC(=O)O)CCN(CC(=O)O)CCN(CC(=O)O)CC2)NC(=O)[C@@H](CN)NC(=O)CNC(=O)C[N+](C)(C)Cc2ccc([Si](F)(C(C)(C)C)C(C)(C)C)cc2)C(=O)N[C@@H](Cc2ccc(O)cc2)C(=O)NC(Cc2c[nH]c3ccccc23)C(=O)N[C@@H](CCCCN)C(=O)N[C@@H]([C@@H](C)O)C(=O)N1)C(=O)O (stereo partly drawn) (natLu complex, metal not drawn) [[Lu]52]
IC50 (SST2): 3.51 ± 0.41 nM

C[C@@H](O)[C@H](NC(=O)C1CSSCC(NC(=O)C(Cc2ccccc2)NC(=O)[C@@H](CC(N)=O)NC(=O)C(CC(N)=O)NC(=O)[C@@H](CC(=O)O)NC(=O)C(CC(=O)O)NC(=O)[C@@H](CNC(=O)CN2CCN(CC(=O)O)CCN(CC(=O)O)CCN(CC(=O)O)CC2)NC(=O)C[N+](C)(C)Cc2ccc([Si](F)(C(C)(C)C)C(C)(C)C)cc2)C(=O)N[C@@H](Cc2ccc(O)cc2)C(=O)NC(Cc2c[nH]c3ccccc23)C(=O)N[C@@H](CCCCN)C(=O)N[C@@H]([C@@H](C)O)C(=O)N1)C(=O)O (stereo partly drawn) (natGa complex, metal not drawn) [[Ga]48]
IC50 (SST2): 6.1 ± 0.57 nM

C[C@@H](O)[C@H](NC(=O)C1CSSCC(NC(=O)C(Cc2ccccc2)NC(=O)CNC(=O)CNC(=O)CNC(=O)C(CC(=O)O)NC(=O)[C@@H](CC(=O)O)NC(=O)C(CNC(=O)CN2CCN(CC(=O)O)CCN(CC(=O)O)CCN(CC(=O)O)CC2)NC(=O)[C@@H](CN)NC(=O)CNC(=O)C[N+](C)(C)Cc2ccc([Si](F)(C(C)(C)C)C(C)(C)C)cc2)C(=O)N[C@@H](Cc2ccc(O)cc2)C(=O)NC(Cc2c[nH]c3ccccc23)C(=O)N[C@@H](CCCCN)C(=O)N[C@@H]([C@@H](C)O)C(=O)N1)C(=O)O (stereo partly drawn) (natGa complex, metal not drawn) [[Ga]52]
IC50 (SST2): 3.69 ± 0.34 nM

C[C@@H](O)[C@H](NC(=O)C1CSSCC(NC(=O)C(Cc2ccccc2)NC(=O)CNC(=O)CNC(=O)[C@@H](CC(=O)O)NC(=O)C(CC(=O)O)NC(=O)[C@@H](CNC(=O)CC[C@H](C(=O)O)N2CCN(CC(=O)O)CCN(CC(=O)O)CCN(CC(=O)O)CC2)NC(=O)C(CN)NC(=O)c2ccc([Si](F)(C(C)(C)C)C(C)(C)C)cc2)C(=O)N[C@@H](Cc2ccc(O)cc2)C(=O)NC(Cc2c[nH]c3ccccc23)C(=O)N[C@@H](CCCCN)C(=O)N[C@@H]([C@@H](C)O)C(=O)N1)C(=O)O (stereo partly drawn) (natGa complex, metal not drawn) [[Ga]20]
IC50 (SST2): 12.7 ± 1 nM
